Results reported in the kinase profiling compilation of Christmann-Franck et al. (2016).

Legend:
Assay in all cases: radiometric filter-binding kinase assay
PHKG1 (human) = PHKG1 (human) (UniProt Q16816); settings: compound 100.0 µM; ATP 50 µM
[1] = test system: SGK1 (human), O00141 [S422D]; settings: compound 100.0 µM; ATP 20 µM
MAPKAPK3 (human) = MAPKAPK3 (human) (UniProt Q16644); settings: compound 100.0 µM; ATP 20 µM
MARK1 (human) = MARK1 (human) (UniProt Q9P0L2); settings: compound 100.0 µM; ATP 20 µM
MAPK9 (human) = MAPK9 (human) (UniProt P45984); settings: compound 100.0 µM; ATP 20 µM
PTK6 (human) = PTK6 (human) (UniProt Q13882); settings: compound 100.0 µM; ATP 20 µM
ABL1 (human) = ABL1 (human) (UniProt P00519); settings: compound 100.0 µM; ATP 5 µM
PIM1 (human) = PIM1 (human) (UniProt P11309); settings: compound 100.0 µM; ATP 20 µM
AURKB (human) = AURKB (human) (UniProt Q96GD4); settings: compound 100.0 µM; ATP 20 µM
STK16 (human) = STK16 (human) (UniProt O75716); settings: compound 100.0 µM; ATP 50 µM
MAP3K9 (human) = MAP3K9 (human) (UniProt P80192); settings: compound 100.0 µM; ATP 20 µM
BRSK1 (human) = BRSK1 (human) (UniProt Q8TDC3); settings: compound 100.0 µM; ATP 20 µM
SRPK1 (human) = SRPK1 (human) (UniProt Q96SB4); settings: compound 100.0 µM; ATP 50 µM
MAP2K1 (human) = MAP2K1 (human) (UniProt Q02750); settings: compound 100.0 µM; ATP 5 µM
FGFR1 (human) = FGFR1 (human) (UniProt P11362); settings: compound 100.0 µM; ATP 20 µM
MAP2K2 (human) = MAP2K2 (human) (UniProt P36507); settings: compound 100.0 µM; ATP 5 µM
TBK1 (human) = TBK1 (human) (UniProt Q9UHD2); settings: compound 100.0 µM; ATP 50 µM
PDPK1 (human) = PDPK1 (human) (UniProt O15530); settings: compound 100.0 µM
TTK (human) = TTK (human) (UniProt P33981); settings: compound 100.0 µM; ATP 20 µM
CSNK2A1 (human) = CSNK2A1 (human) (UniProt P68400); settings: compound 100.0 µM; ATP 5 µM
MAPK15 (human) = MAPK15 (human) (UniProt Q8TD08); settings: compound 100.0 µM; ATP 5 µM
GCK (human) = GCK (human) (UniProt Q12851); settings: compound 100.0 µM; ATP 20 µM
MARK4 (human) = MARK4 (human) (UniProt Q96L34); settings: compound 100.0 µM; ATP 50 µM
RIPK2 (human) = RIPK2 (human) (UniProt O43353); settings: compound 100.0 µM; ATP 20 µM
MAPK14 (human) = MAPK14 (human) (UniProt Q16539); settings: compound 100.0 µM; ATP 50 µM
IRAK4 (human) = IRAK4 (human) (UniProt Q9NWZ3); settings: compound 100.0 µM; ATP 20 µM
PIM3 (human) = PIM3 (human) (UniProt Q86V86); settings: compound 100.0 µM; ATP 20 µM
CHEK2 (human) = CHEK2 (human) (UniProt O96017); settings: compound 100.0 µM; ATP 20 µM
CHEK1 (human) = CHEK1 (human) (UniProt O14757); settings: compound 100.0 µM; ATP 20 µM
MAPK3 (human) = MAPK3 (human) (UniProt P27361); settings: compound 100.0 µM; ATP 5 µM
[2] = test system: AKT2 (human), P31751 [S474D]; settings: compound 100.0 µM; ATP 50 µM
[3] = test system: RPS6KB1 (human), P23443 [T412E]; settings: compound 100.0 µM; ATP 20 µM
FLT1 (human) = FLT1 (human) (UniProt P17948); settings: compound 100.0 µM; ATP 20 µM
MAPK13 (human) = MAPK13 (human) (UniProt O15264); settings: compound 100.0 µM; ATP 5 µM
PAK6 (human) = PAK6 (human) (UniProt Q9NQU5); settings: compound 100.0 µM; ATP 20 µM
AURKA (human) = AURKA (human) (UniProt O14965); settings: compound 100.0 µM; ATP 5 µM
JAK2 JH1 JH2 (human) = JAK2 JH1 JH2 (human) (UniProt O60674); settings: compound 100.0 µM; ATP 5 µM
PAK7 (human) = PAK7 (human) (UniProt Q9P286); settings: compound 100.0 µM; ATP 20 µM
PLK1 (human) = PLK1 (human) (UniProt P53350); settings: compound 100.0 µM; ATP 5 µM
DYRK2 (human) = DYRK2 (human) (UniProt Q92630); settings: compound 100.0 µM; ATP 50 µM

Sequence of PDPK1 (human) (O15530 whole entry, looked up): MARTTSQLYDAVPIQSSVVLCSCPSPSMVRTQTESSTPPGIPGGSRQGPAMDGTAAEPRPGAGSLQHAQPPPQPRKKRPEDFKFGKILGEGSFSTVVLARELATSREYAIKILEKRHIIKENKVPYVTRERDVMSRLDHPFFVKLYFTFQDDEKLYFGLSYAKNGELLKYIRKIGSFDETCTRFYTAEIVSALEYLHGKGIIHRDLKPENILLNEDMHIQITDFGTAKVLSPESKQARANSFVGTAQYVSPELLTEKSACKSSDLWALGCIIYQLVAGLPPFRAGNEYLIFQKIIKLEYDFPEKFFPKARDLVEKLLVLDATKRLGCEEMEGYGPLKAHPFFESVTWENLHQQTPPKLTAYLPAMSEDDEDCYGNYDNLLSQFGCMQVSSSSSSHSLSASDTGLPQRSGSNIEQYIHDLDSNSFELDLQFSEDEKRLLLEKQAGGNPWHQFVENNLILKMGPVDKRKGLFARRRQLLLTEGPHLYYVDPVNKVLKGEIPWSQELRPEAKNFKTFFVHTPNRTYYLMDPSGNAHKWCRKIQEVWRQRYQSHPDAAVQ
Sequence of MAPK9 (human) (P45984 whole entry, looked up): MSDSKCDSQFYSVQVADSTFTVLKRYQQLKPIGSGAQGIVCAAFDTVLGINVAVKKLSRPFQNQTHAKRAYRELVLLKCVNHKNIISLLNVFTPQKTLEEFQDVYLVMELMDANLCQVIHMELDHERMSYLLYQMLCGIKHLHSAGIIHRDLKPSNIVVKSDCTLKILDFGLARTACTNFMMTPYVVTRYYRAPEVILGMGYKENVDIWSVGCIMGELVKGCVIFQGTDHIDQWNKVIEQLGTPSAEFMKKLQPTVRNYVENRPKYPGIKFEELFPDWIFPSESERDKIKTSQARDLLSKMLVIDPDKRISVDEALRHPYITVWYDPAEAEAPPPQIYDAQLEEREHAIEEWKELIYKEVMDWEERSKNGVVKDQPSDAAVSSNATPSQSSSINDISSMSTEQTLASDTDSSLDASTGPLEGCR
Sequence of CHEK1 (human) (O14757 whole entry, looked up): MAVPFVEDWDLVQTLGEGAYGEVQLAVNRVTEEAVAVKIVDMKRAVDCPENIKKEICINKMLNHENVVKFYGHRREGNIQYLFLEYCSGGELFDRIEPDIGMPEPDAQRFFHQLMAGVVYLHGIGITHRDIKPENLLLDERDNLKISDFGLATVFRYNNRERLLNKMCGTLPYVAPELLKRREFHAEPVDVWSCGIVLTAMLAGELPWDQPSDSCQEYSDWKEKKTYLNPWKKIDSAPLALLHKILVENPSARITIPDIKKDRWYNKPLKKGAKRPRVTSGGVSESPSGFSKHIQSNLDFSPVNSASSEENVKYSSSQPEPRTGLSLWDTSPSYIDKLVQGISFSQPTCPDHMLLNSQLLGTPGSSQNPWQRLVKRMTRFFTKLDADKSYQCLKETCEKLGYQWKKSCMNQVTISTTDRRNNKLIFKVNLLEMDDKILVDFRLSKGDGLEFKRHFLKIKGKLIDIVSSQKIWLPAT
Sequence of MAP2K1 (human) (Q02750 whole entry, looked up): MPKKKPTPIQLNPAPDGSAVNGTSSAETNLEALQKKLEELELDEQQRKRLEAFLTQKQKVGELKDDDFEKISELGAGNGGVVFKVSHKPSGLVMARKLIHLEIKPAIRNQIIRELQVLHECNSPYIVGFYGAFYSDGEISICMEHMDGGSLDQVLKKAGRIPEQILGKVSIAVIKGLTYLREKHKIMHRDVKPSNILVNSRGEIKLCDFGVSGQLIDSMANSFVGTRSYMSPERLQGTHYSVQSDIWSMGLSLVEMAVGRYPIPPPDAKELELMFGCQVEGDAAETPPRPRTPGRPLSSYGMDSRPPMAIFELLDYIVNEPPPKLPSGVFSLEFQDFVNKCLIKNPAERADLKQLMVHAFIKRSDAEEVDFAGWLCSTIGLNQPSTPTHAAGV
Sequence of RPS6KB1 (human), P23443 [T412E] (P23443 whole entry T412E, looked up): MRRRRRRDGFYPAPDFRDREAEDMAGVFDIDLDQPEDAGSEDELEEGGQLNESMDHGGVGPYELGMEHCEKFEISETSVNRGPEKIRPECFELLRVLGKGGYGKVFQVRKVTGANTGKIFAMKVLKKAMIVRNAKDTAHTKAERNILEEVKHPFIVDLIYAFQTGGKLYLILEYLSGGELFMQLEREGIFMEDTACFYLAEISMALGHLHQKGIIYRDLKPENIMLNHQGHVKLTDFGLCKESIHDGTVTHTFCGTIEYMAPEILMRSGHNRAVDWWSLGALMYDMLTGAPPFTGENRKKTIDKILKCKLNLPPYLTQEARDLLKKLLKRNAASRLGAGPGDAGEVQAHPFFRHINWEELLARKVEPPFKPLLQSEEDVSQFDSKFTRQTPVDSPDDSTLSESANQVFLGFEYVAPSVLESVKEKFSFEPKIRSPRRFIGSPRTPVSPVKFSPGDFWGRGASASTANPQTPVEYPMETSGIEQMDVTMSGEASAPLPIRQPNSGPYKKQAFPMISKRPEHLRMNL
Sequence of MAP3K9 (human) (P80192 whole entry, looked up): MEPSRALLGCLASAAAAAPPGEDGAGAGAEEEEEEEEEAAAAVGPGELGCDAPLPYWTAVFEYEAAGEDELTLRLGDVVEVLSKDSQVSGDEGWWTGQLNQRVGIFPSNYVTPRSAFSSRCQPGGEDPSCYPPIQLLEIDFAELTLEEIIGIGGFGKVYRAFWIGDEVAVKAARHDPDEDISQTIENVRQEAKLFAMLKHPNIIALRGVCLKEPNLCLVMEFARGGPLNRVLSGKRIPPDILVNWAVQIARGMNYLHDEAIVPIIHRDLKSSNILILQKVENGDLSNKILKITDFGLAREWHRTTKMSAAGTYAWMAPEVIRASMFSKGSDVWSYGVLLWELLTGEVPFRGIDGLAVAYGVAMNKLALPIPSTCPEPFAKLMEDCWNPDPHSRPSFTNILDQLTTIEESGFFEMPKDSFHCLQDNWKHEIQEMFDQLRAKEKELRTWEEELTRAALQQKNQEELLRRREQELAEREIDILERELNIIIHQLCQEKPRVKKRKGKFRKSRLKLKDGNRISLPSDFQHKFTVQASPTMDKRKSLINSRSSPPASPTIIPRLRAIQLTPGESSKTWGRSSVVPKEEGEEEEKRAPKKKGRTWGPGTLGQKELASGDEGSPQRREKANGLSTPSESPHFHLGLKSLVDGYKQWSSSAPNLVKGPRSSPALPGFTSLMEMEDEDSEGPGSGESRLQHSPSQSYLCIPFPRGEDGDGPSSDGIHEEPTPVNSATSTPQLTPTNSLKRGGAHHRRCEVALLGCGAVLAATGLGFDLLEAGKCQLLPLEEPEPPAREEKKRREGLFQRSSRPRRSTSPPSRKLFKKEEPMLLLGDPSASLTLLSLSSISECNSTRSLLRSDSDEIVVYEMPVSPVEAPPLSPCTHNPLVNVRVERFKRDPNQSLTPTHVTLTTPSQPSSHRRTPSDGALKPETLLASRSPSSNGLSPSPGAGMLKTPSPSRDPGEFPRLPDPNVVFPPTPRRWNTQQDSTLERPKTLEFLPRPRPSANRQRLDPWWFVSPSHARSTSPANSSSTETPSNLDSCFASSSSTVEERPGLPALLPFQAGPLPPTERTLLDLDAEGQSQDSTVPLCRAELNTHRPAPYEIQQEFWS
Sequence of MARK1 (human) (Q9P0L2 whole entry, looked up): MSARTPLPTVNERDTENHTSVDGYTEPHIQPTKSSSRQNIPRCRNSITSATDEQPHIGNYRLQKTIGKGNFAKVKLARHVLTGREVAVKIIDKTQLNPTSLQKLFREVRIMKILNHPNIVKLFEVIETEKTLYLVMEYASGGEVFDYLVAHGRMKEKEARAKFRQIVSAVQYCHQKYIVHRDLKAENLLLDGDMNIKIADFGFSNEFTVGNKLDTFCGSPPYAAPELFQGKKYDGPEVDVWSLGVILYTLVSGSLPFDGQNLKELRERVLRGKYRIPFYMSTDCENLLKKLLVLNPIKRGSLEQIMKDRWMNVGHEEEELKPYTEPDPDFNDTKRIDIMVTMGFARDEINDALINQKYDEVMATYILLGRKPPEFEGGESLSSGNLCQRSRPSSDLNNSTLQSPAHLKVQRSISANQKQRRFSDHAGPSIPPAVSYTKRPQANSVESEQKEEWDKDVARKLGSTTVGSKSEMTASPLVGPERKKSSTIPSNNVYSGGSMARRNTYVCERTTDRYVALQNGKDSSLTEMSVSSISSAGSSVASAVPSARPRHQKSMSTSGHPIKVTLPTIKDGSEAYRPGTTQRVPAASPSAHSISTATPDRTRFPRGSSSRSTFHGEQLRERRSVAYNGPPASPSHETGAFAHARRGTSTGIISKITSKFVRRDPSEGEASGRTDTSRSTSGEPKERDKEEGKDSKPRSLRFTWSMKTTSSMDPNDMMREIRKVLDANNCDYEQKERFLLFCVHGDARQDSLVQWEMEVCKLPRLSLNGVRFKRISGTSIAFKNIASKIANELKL
Sequence of PIM1 (human) (P11309 whole entry, looked up): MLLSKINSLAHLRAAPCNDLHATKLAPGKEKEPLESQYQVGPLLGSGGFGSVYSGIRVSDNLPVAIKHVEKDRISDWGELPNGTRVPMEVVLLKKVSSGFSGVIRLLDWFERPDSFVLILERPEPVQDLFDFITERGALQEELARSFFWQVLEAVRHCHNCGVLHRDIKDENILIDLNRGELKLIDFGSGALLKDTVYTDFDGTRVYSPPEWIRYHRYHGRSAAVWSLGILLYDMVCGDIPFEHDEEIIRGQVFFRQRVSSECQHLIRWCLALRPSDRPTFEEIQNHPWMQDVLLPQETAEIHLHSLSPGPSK

For O=C(Nc1cnc2[nH]cnn2c1=O)c1ccccc1, the inhibition (PHKG1 (human)) was 28%, the inhibition [1] was 0% and the inhibition (MAPKAPK3 (human)) was 0%. The inhibition (MARK1 (human)) was 0%, the inhibition (MAPK9 (human)) was 3% and the inhibition (PTK6 (human)) was 19%. It also gave an inhibition (ABL1 (human)) of 3%, an inhibition (PIM1 (human)) of 0% and an inhibition (AURKB (human)) of 0%. For the same compound, the inhibition (STK16 (human)) was 10%, the inhibition (MAP3K9 (human)) was 0% and the inhibition (BRSK1 (human)) was 2%. The inhibition (SRPK1 (human)) was 0%, the inhibition (MAP2K1 (human)) was 20% and the inhibition (FGFR1 (human)) was 0%. For the same compound, the inhibition (MAP2K2 (human)) was 0%, the inhibition (TBK1 (human)) was 24% and the inhibition (PDPK1 (human); ATP 20 µM) was 1%. The inhibition (PDPK1 (human); ATP 50 µM) was 0%, the inhibition (TTK (human)) was 0% and the inhibition (CSNK2A1 (human)) was 0%. It also gave an inhibition (MAPK15 (human)) of 4%, an inhibition (GCK (human)) of 0% and an inhibition (MARK4 (human)) of 0%. The inhibition (RIPK2 (human)) was 0%, the inhibition (MAPK14 (human)) was 0% and the inhibition (IRAK4 (human)) was 0%. It also gave an inhibition (PIM3 (human)) of 0%, an inhibition (CHEK2 (human)) of 0% and an inhibition (CHEK1 (human)) of 0%. The inhibition (MAPK3 (human)) was 13%, the inhibition [2] was 15% and the inhibition [3] was 0%. The inhibition (FLT1 (human)) was 0%, the inhibition (MAPK13 (human)) was 0% and the inhibition (PAK6 (human)) was 0%. For the same compound, the inhibition (AURKA (human)) was 0%, the inhibition (JAK2 JH1 JH2 (human)) was 0% and the inhibition (PAK7 (human)) was 0%. It also gave an inhibition (PLK1 (human)) of 0% and an inhibition (DYRK2 (human)) of 27%.
